Experimental data reported in PMC10600239, “Selective MCL-1 inhibitor ABBV-467 is efficacious in tumor models but is associated with cardiac troponin increases in patients” (Communications Medicine, 2023).
Where “and” joins values, the source holds several entries; their conditions need not be identical. Equal entries are not always repeated. Where two headings read alike, the source gives them in different places.

Tests used:
[1] = target: human MCL-1 (Homo sapiens, UniProt Q07820); assay: Time-resolved FRET binding assay
human MCL-1, sequence (Q07820 whole entry): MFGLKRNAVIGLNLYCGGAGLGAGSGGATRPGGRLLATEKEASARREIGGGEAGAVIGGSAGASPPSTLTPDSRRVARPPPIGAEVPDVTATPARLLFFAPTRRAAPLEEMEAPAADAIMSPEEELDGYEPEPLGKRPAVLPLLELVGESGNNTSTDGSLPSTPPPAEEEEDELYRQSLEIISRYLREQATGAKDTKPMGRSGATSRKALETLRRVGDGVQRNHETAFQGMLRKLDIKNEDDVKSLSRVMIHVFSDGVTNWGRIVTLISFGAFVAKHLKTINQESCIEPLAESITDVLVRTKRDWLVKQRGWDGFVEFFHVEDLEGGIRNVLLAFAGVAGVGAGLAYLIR
Protocol: (§1) Test compounds were serially diluted in DMSO starting at […] (20× starting concentration; 100% DMSO followed by a 1:10 dilution of the compound DMSO plate into assay buffer); 10 µL of the compound in 10% DMSO was then transferred into a 384-well plate (low-volume Corning #3673 assay plate). Glutathione S-transferase (GST)-tagged recombinant BCL-2, BCL-XL, MCL-1, BCL-W, or BCL2-A1 protein (1 nM each) were mixed with 100 nM Oregon Green™-labeled f-BAK peptide probe and 1 nM Tb-labeled anti-GST antibody were mixed. Then 10 µL of a 2× protein/probe/antibody mix was added to each well of increasing concentrations of test compound in assay buffer (20 mM potassium phosphate, pH 7.6, 50 mM NaCl, 1 mM ethylenediaminetetraacetic acid disodium salt dihydrate, 0.05% pluronic acid F-68, 1 mM DL-dithiothreitol) at room temperature (final concentrations listed in Supplementary Table S2). The samples were then mixed on a shaker for 1 min and incubated for an additional 1 h at room temperature. For each assay plate, a probe/antibody and protein/antibody/probe mixture were included as a negative and a positive control, respectively. Fluorescence was measured on the EnVision™ (Perkin Elmer) using a 340/35-nm excitation filter and 520/525- (F-Bak) and 495/510-nm (Tb-labeled anti-glutathione S-transferase [GST] antibody) emission filters. Dissociation constants were determined using Wang’s equation[35]. The time-resolved FRET assay can be performed in the presence of varying concentrations of human serum to determine apparent half-maximal inhibitory concentration after serum protein binding.

[2] = target: T1, BCL2-A1 (Homo sapiens, UniProt Q16548); assay: Time-resolved FRET binding assay; details: TR-FRET, individual determinations; read-out: Individual Ki, BCL2-A1
T1 sequence (Q16548 1-175): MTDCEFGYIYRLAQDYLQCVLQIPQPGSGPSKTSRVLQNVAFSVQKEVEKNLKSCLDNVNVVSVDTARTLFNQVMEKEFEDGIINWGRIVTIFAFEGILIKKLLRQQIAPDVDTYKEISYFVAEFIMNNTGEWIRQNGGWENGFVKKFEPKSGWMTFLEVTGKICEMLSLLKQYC
Protocol: as §1, with “Binding affinities for MCL-1, BCL-2, BCL-XL, BCL-W, and BCL2-A1 were determined using a time-resolved fluorescence resonance energy transfer (FRET) assay. Test” for “Test”

[3] = system: SU-DHL-1 cells; assay: Cell viability of BAK-deficient and parental SU-DHL-1 cells (CellTiter-Glo); format: cell-based; details: SU-DHL-1, 24 hr
Protocol: Supplementary Fig . S4: BAK is required for ABBV-467 ac tiv ity in S U-DHL-1 cells. BAK-deficient SU- D HL -1
cells were treated with ABBV-4 67 fo r 24 hr at the indicated concentrations and the impact on cell
viability compared to the parental cell line determined by CellTiter- G lo . N=3 .
(1 picture or pasted object on this page, not shown here)

[4] = target: hERG (Homo sapiens, UniProt Q12809); assay: hERG current, in vitro; format: cell-based; details: read-out: hERG tail current IC50
hERG, sequence (Q12809 whole entry): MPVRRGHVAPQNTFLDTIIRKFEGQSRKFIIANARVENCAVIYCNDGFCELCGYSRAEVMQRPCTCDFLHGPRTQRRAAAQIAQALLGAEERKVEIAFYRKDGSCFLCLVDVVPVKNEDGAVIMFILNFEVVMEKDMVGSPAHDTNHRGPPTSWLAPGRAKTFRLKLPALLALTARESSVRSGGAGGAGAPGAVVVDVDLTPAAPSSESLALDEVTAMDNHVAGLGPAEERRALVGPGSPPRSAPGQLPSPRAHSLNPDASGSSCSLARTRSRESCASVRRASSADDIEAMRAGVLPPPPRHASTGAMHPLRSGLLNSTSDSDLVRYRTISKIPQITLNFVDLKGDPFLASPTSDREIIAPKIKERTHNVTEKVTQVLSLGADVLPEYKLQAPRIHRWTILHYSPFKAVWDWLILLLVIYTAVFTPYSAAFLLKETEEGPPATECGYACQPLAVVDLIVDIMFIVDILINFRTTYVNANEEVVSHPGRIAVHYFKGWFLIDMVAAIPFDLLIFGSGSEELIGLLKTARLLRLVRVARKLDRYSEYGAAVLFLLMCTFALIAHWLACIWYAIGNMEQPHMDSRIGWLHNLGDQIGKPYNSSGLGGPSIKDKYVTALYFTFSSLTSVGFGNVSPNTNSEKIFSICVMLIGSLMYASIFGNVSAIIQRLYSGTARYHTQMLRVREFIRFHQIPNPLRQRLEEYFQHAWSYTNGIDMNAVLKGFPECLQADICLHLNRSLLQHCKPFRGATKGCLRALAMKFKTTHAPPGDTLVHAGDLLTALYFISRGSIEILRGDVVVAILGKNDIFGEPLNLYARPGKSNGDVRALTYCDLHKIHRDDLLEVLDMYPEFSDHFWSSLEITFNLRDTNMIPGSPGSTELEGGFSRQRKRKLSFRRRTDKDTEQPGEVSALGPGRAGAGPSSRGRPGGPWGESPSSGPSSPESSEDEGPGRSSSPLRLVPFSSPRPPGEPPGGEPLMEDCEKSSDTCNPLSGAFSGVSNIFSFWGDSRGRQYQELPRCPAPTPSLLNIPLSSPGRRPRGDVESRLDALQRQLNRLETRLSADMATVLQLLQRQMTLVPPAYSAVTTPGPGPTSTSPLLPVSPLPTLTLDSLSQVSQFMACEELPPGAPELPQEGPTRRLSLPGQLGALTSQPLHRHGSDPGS
Protocol: Supplementary Table S6: Maj or findings in safety pharmac ology cardiovascular studies c onduc ted with ABBV- […]
Species/Strain Route of Concentrations Sex and N Results
Administration or Doses per Group […]
Anesthetized IV 1, 3, and Male No effects up to a plasma concentration dog 10 m g/ k gN=4 o f 16 .83 µg/mL on […]
aged 8-12 months • Heart rate
• Systemic vascular resistance
At 67 .23 mg/m L, an increase in heart rate and decrease in systemic vascular
Conscious IV 0, 0.3, 1, and Male No effects on blood pressure, heart dog 3 mg/kg N=5–6a rate, or ECG parameters at any dose beagle (plasma concentration of 6.53 µg/mL at (aged 8-12 months 3-m g/ k g do s e )
ECG, electrocardiogram; IC50, half maximal inhibitory concentration; IV, intravenous; QTcV, QT interval correct ed accor ding to the Van de Water formula. No animals or data were excl uded from analysis . Studies were approved by the animal use committee of Abbvie, Lake County, IL. Healthy dogs, as determined by veterinary physical examination and clinical pathology, were selected for study based on availability without explicit randomization. Conscious dog telemetry utiliz ed a Latin square design to randomize for dose order e ff ects. The same 6 dogs received all d oses. Power analysis has shown a group size of 6 can statistically detect an approximately 20 % alteration in measured parameters w ith α =0.0 5. […]

## Cc1c(Cl)c2c(Cl)c(C)c1-c1c(-c3ccc(F)cc3)sc3ncnc(c13)O[C@@H](C(=O)O)Cc1cc(ccc1OCc1ccnc(-c3ccc(OC[C@H]4COCCO4)cc3)n1)OC[C@@H](CN1CCN(C)CC1)O2 [ABBV-467]
[1]; TR-FRET, arithmetic mean, read-out: Arithmetic Mean Ki, MCL1
  Ki: < 0.01 nM
[1]; TR-FRET, individual determinations, read-out: Individual Ki, MCL1
  Ki: < 0.01 nM
[1]; read-out: TR-FRET, Ki, nM MCL-1
  Ki: < 0.01 nM
[2]
  Ki: 402 nM and > 468 nM (2×)
[3]
  effect of BAK deletion on activity: completely inhibited
[4]
  IC50: > 20.3 µg/mL
